ChEMBL document CHEMBL1201862, “PubChem BioAssay data set” (2004)
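Values below derive from 48-hour exposures of cells grown in 96-well plates, with endpoints linearly interpolated between the two concentrations bracketing the appropriate inhibition level. GI50 marks 50% less growth.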 The source made the active and inactive calls. No stated cut-off is given here; in the data, active = GI50 up to about 1.1 µM and inactive = higher.

What was measured:
Assay in all cases: growth of human tumour cells (NCI), 48 h
786-0 = system: 786-0
A498 = system: A498
A549 = system: A549
ACHN = system: ACHN
BT-549 = system: BT-549
CAKI-1 = system: CAKI-1
CCRF-CEM = system: CCRF-CEM
COLO 205 = system: COLO 205
DU-145 = system: DU-145
EKVX = system: EKVX
HCT-116 = system: HCT-116
HCT-15 = system: HCT-15
HL-60 = system: HL-60
HOP-62 = system: HOP-62
HOP-92 = system: HOP-92
HT-29 = system: HT-29
Hs-578T = system: Hs-578T
IGROV-1 = system: IGROV-1
K562 = system: K562
KM12 = system: KM12
LOX IMVI = system: LOX IMVI
M14 = system: M14
MCF7 = system: MCF7
MDA-MB-231 = system: MDA-MB-231
MDA-MB-435 = system: MDA-MB-435
MDA-N = system: MDA-N
MOLT-4 = system: MOLT-4
Malme-3M = system: Malme-3M
NCI-H226 = system: NCI-H226
NCI-H23 = system: NCI-H23
NCI-H460 = system: NCI-H460
NCI-H522 = system: NCI-H522
NCI/ADR-RES = system: NCI/ADR-RES
OVCAR-3 = system: OVCAR-3
OVCAR-4 = system: OVCAR-4
OVCAR-5 = system: OVCAR-5
OVCAR-8 = system: OVCAR-8
PC-3 = system: PC-3
RPMI-8226 = system: RPMI-8226
RXF 393 = system: RXF 393
SF-268 = system: SF-268
SF-295 = system: SF-295
SF-539 = system: SF-539
SK-MEL-28 = system: SK-MEL-28
SK-MEL-2 = system: SK-MEL-2
SK-MEL-5 = system: SK-MEL-5
SK-OV-3 = system: SK-OV-3
SN12C = system: SN12C
SNB-19 = system: SNB-19
SNB-75 = system: SNB-75
SR = system: SR
SW-620 = system: SW-620
T47D = system: T47D
TK-10 = system: TK-10
U-251 = system: U-251
UACC-257 = system: UACC-257
UACC-62 = system: UACC-62
UO-31 = system: UO-31

With `N=C(CC(=O)Nc1ccccn1)c1ccccc1` the GI50 (786-0) was > 100 µM (inactive), the GI50 (A498) was > 100 µM (inactive) and the GI50 (A549) was > 100 µM (inactive). For the same molecule, the GI50 (ACHN) was > 100 µM (inactive), the GI50 (BT-549) was > 100 µM (inactive) and the GI50 (CAKI-1) was > 100 µM (inactive). For the same molecule, the GI50 (CCRF-CEM) was > 100 µM (inactive), the GI50 (COLO 205) was > 100 µM (inactive) and the GI50 (DU-145) was > 100 µM (inactive). The GI50 (EKVX) was > 100 µM (inactive), the GI50 (HCT-116) was > 100 µM (inactive) and the GI50 (HCT-15) was > 100 µM. The GI50 (HL-60) was > 100 µM (inactive), the GI50 (HOP-62) was > 100 µM (inactive) and the GI50 (HOP-92) was > 100 µM (inactive). For the same molecule, the GI50 (HT-29) was > 100 µM (inactive), the GI50 (Hs-578T) was > 100 µM (inactive) and the GI50 (IGROV-1) was > 100 µM (inactive). The GI50 (K562) was > 100 µM (inactive), the GI50 (KM12) was > 100 µM (inactive) and the GI50 (LOX IMVI) was > 100 µM (inactive). For the same molecule, the GI50 (M14) was > 100 µM (inactive), the GI50 (MCF7) was > 100 µM (inactive) and the GI50 (MDA-MB-231) was > 100 µM (inactive). For the same molecule, the GI50 (MDA-MB-435) was > 100 µM (inactive), the GI50 (MDA-N) was > 100 µM (inactive) and the GI50 (MOLT-4) was > 100 µM (inactive). For the same molecule, the GI50 (Malme-3M) was > 100 µM (inactive), the GI50 (NCI-H226) was > 100 µM (inactive) and the GI50 (NCI-H23) was > 100 µM (inactive). The GI50 (NCI-H460) was > 100 µM (inactive), the GI50 (NCI-H522) was > 100 µM (inactive) and the GI50 (NCI/ADR-RES) was > 100 µM (inactive). For the same molecule, the GI50 (OVCAR-3) was > 100 µM (inactive), the GI50 (OVCAR-4) was > 100 µM (inactive) and the GI50 (OVCAR-5) was > 100 µM (inactive). For the same molecule, the GI50 (OVCAR-8) was > 100 µM (inactive), the GI50 (PC-3) was > 100 µM (inactive) and the GI50 (RPMI-8226) was > 100 µM (inactive). The GI50 (RXF 393) was > 100 µM (inactive), the GI50 (SF-268) was > 100 µM (inactive) and the GI50 (SF-295) was > 100 µM (inactive). The GI50 (SF-539) was > 100 µM (inactive), the GI50 (SK-MEL-28) was > 100 µM (inactive) and the GI50 (SK-MEL-2) was > 100 µM (inactive). The GI50 (SK-MEL-5) was > 100 µM (inactive), the GI50 (SK-OV-3) was > 100 µM (inactive) and the GI50 (SN12C) was > 100 µM (inactive). For the same molecule, the GI50 (SNB-19) was > 100 µM (inactive), the GI50 (SNB-75) was > 100 µM (inactive) and the GI50 (SR) was > 100 µM (inactive). The GI50 (SW-620) was > 100 µM (inactive), the GI50 (T47D) was > 100 µM (inactive) and the GI50 (TK-10) was > 100 µM (inactive). The GI50 (U-251) was > 100 µM (inactive), the GI50 (UACC-257) was > 100 µM (inactive) and the GI50 (UACC-62) was > 100 µM (inactive). For the same molecule, the GI50 (UO-31) was > 100 µM (inactive).
